This is an account of results in ChEMBL document CHEMBL5614401 (Eur J Med Chem, 2024).

The source made the active and inactive calls. The calls are words filed in the database; no cut-off is given here.

The target in data set [1] is T1, Solute carrier family 22 member 12 (Homo sapiens, UniProt Q96S37).
T1 sequence (Q96S37 whole entry): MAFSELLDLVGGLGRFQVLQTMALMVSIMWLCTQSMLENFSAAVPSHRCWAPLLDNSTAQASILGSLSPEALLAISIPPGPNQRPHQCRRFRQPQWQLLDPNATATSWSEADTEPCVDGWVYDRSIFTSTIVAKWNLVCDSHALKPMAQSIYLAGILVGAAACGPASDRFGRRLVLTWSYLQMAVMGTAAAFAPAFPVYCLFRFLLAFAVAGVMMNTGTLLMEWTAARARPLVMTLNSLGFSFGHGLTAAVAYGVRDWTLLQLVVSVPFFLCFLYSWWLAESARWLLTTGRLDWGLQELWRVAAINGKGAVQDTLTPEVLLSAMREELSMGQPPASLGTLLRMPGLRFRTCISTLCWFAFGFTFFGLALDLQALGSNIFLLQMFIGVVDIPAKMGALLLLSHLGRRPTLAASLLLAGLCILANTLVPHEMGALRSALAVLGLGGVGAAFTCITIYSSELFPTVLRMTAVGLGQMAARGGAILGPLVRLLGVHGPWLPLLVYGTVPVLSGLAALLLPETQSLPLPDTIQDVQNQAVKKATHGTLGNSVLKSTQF
As to the kind of experiment: Inhibition of human URAT1 transfected in HEK293 cells by measuring 14C-uric acid uptake preincubated for 30 mins followed by 14--uric acid addition and measured after 15 mins by liquid scintillation counter analysis. Type of data set: cell-based.

The target of data set [2] is T2, Solute carrier family 2, facilitated glucose transporter member 9 (Homo sapiens) (UniProt Q9NRM0).
T2 sequence (whole entry): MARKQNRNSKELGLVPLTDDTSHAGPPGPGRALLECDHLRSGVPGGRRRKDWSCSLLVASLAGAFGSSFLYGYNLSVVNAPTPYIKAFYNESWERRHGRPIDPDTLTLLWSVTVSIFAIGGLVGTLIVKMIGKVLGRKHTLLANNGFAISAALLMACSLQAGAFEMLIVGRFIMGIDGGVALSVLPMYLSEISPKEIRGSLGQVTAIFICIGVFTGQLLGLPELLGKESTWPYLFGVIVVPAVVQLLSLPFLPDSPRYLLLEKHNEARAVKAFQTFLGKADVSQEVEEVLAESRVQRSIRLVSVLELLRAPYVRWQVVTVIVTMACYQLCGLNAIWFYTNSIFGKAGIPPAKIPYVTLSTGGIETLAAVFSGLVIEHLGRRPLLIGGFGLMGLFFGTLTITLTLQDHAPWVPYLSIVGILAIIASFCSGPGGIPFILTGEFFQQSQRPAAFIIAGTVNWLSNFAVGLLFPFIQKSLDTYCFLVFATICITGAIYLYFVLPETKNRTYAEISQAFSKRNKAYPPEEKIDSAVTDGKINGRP
As to the kind of experiment: Inhibition of GLUT9 (unknown origin) overexpressed in uric acid-induced HEK293 cells at 25 uM by patch clamp analysis relative to control. The data set is classed as cell-based.

The target of data set [3] is T3, Solute carrier family 2, facilitated glucose transporter member 9 (Homo sapiens, UniProt Q9NRM0).
T3 sequence (Q9NRM0 whole entry): T2 sequence (whole entry)
As to the kind of experiment: Inhibition of GLUT9 (unknown origin) overexpressed in uric acid-induced HEK293 cells by patch clamp analysis. The data set is classed as cell-based.

Data set [4] relates to Mus musculus. As to the kind of experiment: Anti-hyperuricemic activity against potassium oxonate-induced male Kunming mouse model assessed as reduction in serum uric acid level at 10 mg/kg, po via gavage administered 1 hr post-potassium oxonate challenge and measured after 7 days on day 7 potassium oxonate injected after 12 hrs fasting and measured followed by 1.5 hrs of compound administration. Type of data set: functional. The settings on record: time 7 day.

For data set [5], the system named is Mus musculus. As to the kind of experiment: Anti-hyperuricemic activity against potassium oxonate-induced male Kunming mouse model assessed as increase in urine uric acid level at 10 mg/kg, po via gavage administered 1 hr post-potassium oxonate challenge and measured after 7 days on day 7 potassium oxonate injected after 12 hrs fasting and measured followed by 1.5 hrs of compound administration (reference value: 481.6 microM). The data set is classed as functional. The settings on record: time 7 day.

The test system of data set [6] is HK-2. As to the kind of experiment: Cytotoxicity against human HK-2 cells assessed as cell viability at <100 uM incubated for 24 hrs by MTT assay. The data set is classed as toxicity, cell-based. The settings on record: hk-2, 24 h.
Data set [7] can be described thus: Cytotoxicity against human HK-2 cells assessed as cell viability at 100 uM incubated for 48 hrs by MTT assay relative to control. The settings on record: read-out: Activity. The data set is classed as toxicity, cell-based.
Data set [8] in a line: Renal toxicity in potassium oxonate-induced male Kunming mouse model assessed as reduction in CR level in serum at 10 mg/kg,po via gavage administered 1 hr post-potassium oxonate challenge and measured after 7 days on day 7 potassium oxonate injected after 12 hrs fasting and measured followed by 1.5 hrs of compound administration by biochemical analyzer. The settings on record: in vivo, 168 h, time 7 day. Type of data set: organism-based.

Data set [9] can be described thus: Renal toxicity in potassium oxonate-induced male Kunming mouse model assessed as reduction in BUN level in serum at 10 mg/kg,po via gavage administered 1 hr post-potassium oxonate challenge and measured after 7 days on day 7 potassium oxonate injected after 12 hrs fasting and measured followed by 1.5 hrs of compound administration by biochemical analyzer. The data set is classed as organism-based. As to conditions: in vivo, 168 h, time 7 day.

Data set [10] is described as follows: Renal toxicity in potassium oxonate-induced male Kunming mouse model assessed as effect on kidney damage at 10 mg/kg,po via gavage administered 1 hr post-potassium oxonate challenge and measured after 7 days on day 7 potassium oxonate injected after 12 hrs fasting and measured followed by 1.5 hrs of compound administration. Type of data set: organism-based. The settings on record: in vivo, 168 h, time 7 day.

In data set [11] the test system is Mus musculus. As to the kind of experiment: Anti-hyperuricemic activity against potassium oxonate-induced male Kunming mouse model assessed as alleviation of renal tubule dilatation at 10 mg/kg, po via gavage administered 1 hr post-potassium oxonate challenge and measured after 7 days on day 7 potassium oxonate injected after 12 hrs fasting and measured followed by 1.5 hrs of compound administration by H and E staining based analysis. The data set is classed as functional, organism-based. As to conditions: time 7.0 day.

For data set [12], the system named is Mus musculus. As to the kind of experiment: Anti-hyperuricemic activity against potassium oxonate-induced male Kunming mouse model assessed as alleviation of casts formation in kidney at 10 mg/kg, po via gavage administered 1 hr post-potassium oxonate challenge and measured after 7 days on day 7 potassium oxonate injected after 12 hrs fasting and measured followed by 1.5 hrs of compound administration by H and E staining based analysis. The data set is classed as functional, organism-based. As to conditions: time 7.0 day.

Data set [13] relates to Mus musculus. As to the kind of experiment: Anti-hyperuricemic activity against potassium oxonate-induced male Kunming mouse model assessed as alleviation of glomerular ischemia in kidney at 10 mg/kg, po via gavage administered 1 hr post-potassium oxonate challenge and measured after 7 days on day 7 potassium oxonate injected after 12 hrs fasting and measured followed by 1.5 hrs of compound administration by H and E staining based analysis. The data set is classed as functional, organism-based. The settings on record: time 7.0 day.

Data set [14] deals with Mus musculus. As to the kind of experiment: Anti-hyperuricemic activity against potassium oxonate-induced male Kunming mouse model assessed as alleviation of shrinkage in kidney at 10 mg/kg, po via gavage administered 1 hr post-potassium oxonate challenge and measured after 7 days on day 7 potassium oxonate injected after 12 hrs fasting and measured followed by 1.5 hrs of compound administration by H and E staining based analysis. Type of data set: functional, organism-based. As to conditions: time 7.0 day.

Data set [15] is described as follows: Tmax in male Sprague-Dawley rat at 10 mg/kg, po measured after 24 hrs by LC-MS/MS analysis. As to conditions: in vivo. The data set is classed as ADME, organism-based.
Data set [16] can be described thus: Cmax in male Sprague-Dawley rat at 10 mg/kg, po measured after 24 hrs by LC-MS/MS analysis. As to conditions: in vivo. The data set is classed as ADME, organism-based.
Data set [17] in a line: Half life in male Sprague-Dawley rat at 10 mg/kg, po measured after 24 hrs by LC-MS/MS analysis. Type of data set: ADME, organism-based. As to conditions: in vivo.
Data set [18] can be described thus: AUC (0 to infinity) in male Sprague-Dawley rat at 10 mg/kg, po measured after 24 hrs by LC-MS/MS analysis. As to conditions: in vivo. The data set is classed as ADME, organism-based.
Data set [19] in a line: MRT (0 to infinity) in male Sprague-Dawley rat at 10 mg/kg, po measured after 24 hrs by LC-MS/MS analysis. The data set is classed as ADME, organism-based. As to conditions: in vivo.
The target in data set [20] is T1, Solute carrier family 22 member 12. As to the kind of experiment: Inhibition of URAT1 (unknown origin).
For data set [21] the target is unchanged. As to the kind of experiment: Inhibition of human URAT1 transfected in HEK293 cells by measuring 14C-uric acid uptake at 5 uM preincubated for 30 mins followed by 14--uric acid addition and measured after 15 mins by liquid scintillation counter analysis relative to control. Type of data set: cell-based. As to conditions: 0.25 h, time 45 min.
The subject of data set [22] is HK-2. As to the kind of experiment: Cytotoxicity against human HK-2 cells assessed as cell viability at 100 uM incubated for 48 hrs by MTT assay. Type of data set: toxicity, cell-based. The settings on record: hk-2, 48 h.

As for `C/C(=C\Cc1cccc2c1OC(c1ccc(Br)c3ccccc13)CC2=O)C(=O)O` (centres undefined), the values for the IC50 in data set [1] and in data set [3] were 160 nM and 4470 nM, respectively. In addition, the inhibition in [2] came out at 91%. The Activity is 319.1 µM with Mus musculus [4]; 642.1 µM with Mus musculus [5]; “Toxic” with HK-2 [6]; “Non-Toxic” in [8]; “Non-Toxic” in data set [9]; “Non-Toxic” in data set [10]. Besides, the viability at 48 h, 100 µM in data set [7] came out at 62.1%. The outcome in the data set with Mus musculus [11], in the data set on Mus musculus [12], in the data set with Mus musculus [13] and in the data set on Mus musculus [14] was Active. In addition, the Tmax in data set [15] is 1.15 h. For the same compound, in data set [16], the concentration peaked (Cmax) at 2250 ng/mL. The compound further had a half-life in data set [17] of 7.88 h. This compound also returned an AUC(0-inf) in data set [18] of 18700 ng·h/mL. In [19], this compound came in with an MRT inf of 10.2 h.

`O=C(c1cc(Cl)c(O)c(Cl)c1)N1CS(=O)(=O)c2ccccc21` [DOTINURAD] gave an IC50 in data set [20] of 40 nM.

Regarding `CC(C)(Sc1ccncc1Cc1ccc(C#N)c2ccccc12)C(=O)O`, the IC50 in data set [20] stood at 2080 nM.

`CC(C)=CCc1c(O)ccc2c1OC(c1ccc(O)cc1)CC2=O` (centres undefined): 5 µM produced 93.3% inhibition in [21]. Further, the IC50 in data set [1] was found to be 240 nM; in data set [3], 1840 nM; in data set [20], 220 nM. Also, the inhibition in [2] was determined as 95.5%. For the same compound, in [15], the Tmax came out at 1.12 h. The Cmax in [16] worked out at 1110 ng/mL. Besides, the half-life in data set [17] is 6.01 h. In [18], this compound registered an AUC(0-inf) of 7460 ng·h/mL. The MRT inf in [19] was 9.16 h.

Compound `C/C(=C\Cc1c(O)ccc2c1OC(c1cccs1)CC2=O)C(=O)O` (centres undefined) showed an IC50 in data set [1] of 360 nM. Further, in data set [2], the inhibition amounted to 25.5%. Besides, the Activity in the data set with Mus musculus [4] is 366.12 µM; with Mus musculus [5], 630.52 µM; with HK-2 [6], “Toxic”; in the data set on HK-2 [22], “Non-Toxic”; in data set [8] it was “Non-Toxic”; in [9], “Non-Toxic”. Also, the Activity result in [10] is recorded as “Non-Toxic”. Also, the result in the data set on Mus musculus [11], in the data set with Mus musculus [12], in the data set on Mus musculus [13] and with Mus musculus [14] was Active. Also, in data set [15], the Tmax turned out to be 1.63 h. The compound further yielded a Cmax in data set [16] of 1410 ng/mL. Further, the half-life in [17] is 4.52 h. In addition, the AUC(0-inf) in data set [18] was 5560 ng·h/mL. In addition, the MRT inf in [19] is 8.48 h.
